{
  "source": "patent US20240358862A1",
  "about": "“Synthesis Method and Application of a Near-infrared Probe GGa-ICG specific binding to PSCA” (Guangzhou Shiyun Biotechnology Co., Ltd, priority 2022, published 2024)",
  "key": {"cells": {"test_system": "cells", "experiment": "MTT experiment (in vitro cell toxicity)", "format": "cell-based", "conditions": "2-20 times the Kd value concentration", "protocol": "MTT assay was used to measure the in vitro cell toxicity in a 96-well plate. In brief, cells (6×10^3 cells per well) were treated with GGa-ICG (at concentrations of 0, 20, 200 nM, 10 μM, etc.), free drugs, or hybrids in the culture medium (RPMI1640 without FBS, unless otherwise specified; 37° C.; 5% CO2). […]"}, "PC-3 cells": {"test_system": "PC-3 cells", "experiment": "Endocytosis experiment", "format": "cell-based, human", "conditions": "37° C. vs 4° C., trypsin wash", "protocol": "PC-3 cells were incubated with 200 nM GGa-ICG or ssDNA-ICG in 200 μL binding buffer at 37° C. for 10 minutes to observe cell membrane binding. After 2 hours of incubation, the cells were treated with 0.25% trypsin or 0.1 mg/mL proteinase K at 37° C. for 10 minutes to observe internal binding.\nFor inhibition of endocytosis, PC-3 cells were incubated with 200 nM GGa-ICG or ssDNA-ICG in 200 μL binding buffer at 4° C. for 2 hours to observe cell membrane binding. After 4 hours of incubation, the cells were treated with 0.25% trypsin or 0.1 mg/mL proteinase K at 37° C. for 10 minutes to observe internal binding."}, "[1]": {"experiment": "Toxicity test of GGa-ICG (serum enzymatic testing)", "format": "in vivo", "conditions": "serum of nude mice 72 hours after injection", "protocol": "Blood serum was collected from nude mice injected with GGa-ICG for 72 hours and subjected to enzymatic testing."}, "PC tissues": {"test_system": "PC tissues", "experiment": "GGa-ICG staining of PC clinical tissue sections (confocal fluorescence microscopy)", "conditions": "200 nM, paraffin sections", "protocol": "Methods: Paraffin tissue blocks were provided by the Pathology Department of the Third Affiliated Hospital of Sun Yat-sen University (Guangzhou, China). Tissue sections were deparaffinized twice in xylene for 10 min each time, followed by rehydration in a series of graded ethanol (100%, 95%, and 70%) and rinsed in deionized water. After washing in PBS for 5 min, the sections were incubated in TE buffer (10 mM Tris, 1 mM EDTA, pH=8.0, per liter of ddH2O) and boiled in a microwave oven until boiling, then kept at 95° C. for 15 min to retrieve the antigen. The sections were allowed to cool naturally to room temperature and then washed three times with fresh PBS. After histological processing, tissue sections were incubated with binding buffer containing 20% FBS and 0.1 mg/mL Herring Sperm DNA at room temperature for 60 min, followed by incubation with 200 nM GGa-ICG in the binding buffer at 4° C. for 60 min. The sections were washed three times with fresh PBS, dehydrated, and sealed with Antifade PVA mounting medium. Finally, stained sections were imaged using a spinning disk confocal fluorescence microscope (Olympus IX71, Japan). Adjacent sections were stained with […] HE staining. Fluorescence signals were observed using a 40× objective lens (NA 0.90, UPLSAPO, Olympus, Japan). Images were analyzed using FV10-ASW 3.1 software."}, "[2]": {"test_system": "tumor cell lines with elevated PSCA expression", "experiment": "Flow cytometry binding to other tumor cell lines", "format": "cell-based", "source_text": "(§1) PSCA is expressed at high levels in various tumors such as prostate cancer, bladder cancer, kidney cancer, breast cancer, colon cancer, lung cancer, pancreatic cancer, etc. Using the aforementioned method, T24 bladder cancer cells, Cakil renal cancer cells, MDA-MB468 breast cancer cells, HT29 colon cancer cells, PANC1 pancreatic cancer cells, NCI-H460 lung cancer cells, and other cell lines were stained with GGa-ICG for flow cytometry analysis. Positive cell lines were used to establish subcutaneous transplantation tumor models to detect the visualization of GGa-ICG in vivo."}, "[3]": {"test_system": "subcutaneous transplantation tumor models", "experiment": "In vivo visualization in subcutaneous transplantation tumor models of other cancers", "source_text": "as §1"}, "PSCA": {"molecular_target": "T1, PSCA (Homo sapiens, UniProt O43653)", "T1 sequence (O43653 12-83)": "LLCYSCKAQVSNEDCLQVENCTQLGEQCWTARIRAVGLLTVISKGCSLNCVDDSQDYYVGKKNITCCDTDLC", "experiment": "Binding site of GGa-ICG on PSCA protein", "conditions": "sequence ALQPGTALLCYSCKA"}, "[4]": {"experiment": "Water solubility compared to ICG", "format": "physicochemical"}},
  "data": [
    {"substance": "GGa-ICG: near-infrared probe: PSCA-binding nucleic acid aptamer GGa linked at 3′ to an ICG derivative dye (DNA TGCCACTACAGCTGGTTCGGTTTGGTGACTTCGTTCTTCGTTGTGGT; 3'-ICG dye, further chemistry not given here)", "values": [
      {"measurement": "cell inhibition in MTT experiment", "setting": "cells", "value": "no significant cell inhibition"},
      {"measurement": "mode of cell entry", "setting": "PC-3 cells", "value": "enters cells through endocytosis"},
      {"measurement": "in vivo toxicity (serological test)", "setting": "[1]", "value": "did not show in vivo toxicity"},
      {"measurement": "binding rate with PC tissues", "setting": "PC tissues", "value": 82.5, "unit": "%"},
      {"measurement": "fluorescence signal in PC and metastatic tissues", "setting": "PC tissues", "value": "Strong fluorescence signals"},
      {"measurement": "fluorescence signal in normal tissues", "setting": "PC tissues", "value": "No fluorescence signal"},
      {"measurement": "binding to tumor cell lines with elevated PSCA expression", "setting": "[2]", "value": "could bind"},
      {"measurement": "in vivo binding in multiple cancer types", "setting": "[3]", "value": "consistent with PSCA expression"},
      {"measurement": "binding site on PSCA protein (amino acids)", "setting": "PSCA", "value": "14-28"},
      {"measurement": "water solubility compared to existing ICG", "setting": "[4]", "value": "improved"}
    ]}
  ]
}
